Drawing on patent US7205298B2, “Substituted triazine kinase inhibitors” (Janssen Pharmaceutica N.V., priority 2002, dated 2007), this text covers IC50 for 1 molecule.

The target of one experiment is CDK4 (Homo sapiens, UniProt P11802). Description: Kinase selectivity assay CDK4. The class given is biochemical. The procedure: Assays to test compound inhibition of other kinases were preformed using methods that measure the amount of phosphorylation of a biotinylated peptide substrate. Biotinylated peptide substrates were selected from the literature as appropriate for the enzyme being evaluated. The general procedure used to assay for kinase activity is as follows: a kinase reaction mix was prepared in 50 mM Tris-HCl pH=8, 10 mM MgCl2, 0.1 mM Na3VO4, 1 mM DTT, 10 μM ATP, 0.25–1 μM biotinylated peptide substrate, 0.2–0.8 μCuries per well ^33P-γ-ATP (2000–3000 Ci/mmol). Assay conditions vary slightly for each protein kinase, for example, insulin receptor kinase requires 10 mM MnCl2 for activity and Calmodulin-dependent protein kinase requires calmodulin and 2 mM CaCl2. The reaction mixture was dispensed into the wells of a streptavidin coated Flashplate and 1 μL test compound in 100% DMSO was added to a 100 μL reaction volume resulting in a final concentration of 1% DMSO in the reaction. Enzyme was diluted in 50 mM Tris-HCl pH=8.0, 0.1% BSA and added to each well. The reaction was incubated for one hour at 30° C. in the presence of a test compound. […] The plate was read on a scintillation counter to determine ^33P-γ-ATP incorporated into the immobilized peptide substrate. […] A maximum and minimum signal for the assay was determined on each plate. […]

The subject of another experiment is MDA-MB-231. The experiment can be described thus: Inhibition of cell proliferation, 14C-thymidine incorporation, MDA-MB-231. The class given is cell-based. Particulars: Homo sapiens. The procedure: The ability of a test compound to inhibit the proliferation of cell growth was determined by measuring incorporation of ^14C-labelled thymidine into newly synthesized DNA within the cells. This method was used on cell lines derived from carcinomas originating from several tissues such as HeLa cervical adenocarcinoma (American Type Culture Collection (ATCC), Virginia, Cat. #CCL-2), HCT-116 colon carcinoma (CCL-247), MDA-MB-231 (Xenogen Corp.), PC-3 prostate adenocarcinoma (ATCC CRL-1435) and A375 malignant melanoma (ATCC CRL-1619).
Using this method, the effect of a compound on cell growth of cells with many different phenotypes can be determined. Cells were trypsinized and counted and 3000–8000 cells were added to each well of a 96-well CytoStar tissue culture treated scintillating microplate (Amersham #RPNQ0160) in complete medium in a volume of 100 μl. Cells were incubated for 24 hours in complete medium at 37° C. in an atmosphere containing 5% CO2. 1 μL of test compound in 100% DMSO was then added to the wells of the plate. DMSO only was added to control wells. Cells were incubated for 24 more hours in complete medium at 37° C. in an atmosphere containing 5% CO2. […] The degree of methyl ^14C-thymidine incorporation was quantified on a Packard Top Count.
In general terms: Dividing cells build labelled thymidine or BrdU into new DNA.

CDK4, sequence (P11802 whole entry, species assumed): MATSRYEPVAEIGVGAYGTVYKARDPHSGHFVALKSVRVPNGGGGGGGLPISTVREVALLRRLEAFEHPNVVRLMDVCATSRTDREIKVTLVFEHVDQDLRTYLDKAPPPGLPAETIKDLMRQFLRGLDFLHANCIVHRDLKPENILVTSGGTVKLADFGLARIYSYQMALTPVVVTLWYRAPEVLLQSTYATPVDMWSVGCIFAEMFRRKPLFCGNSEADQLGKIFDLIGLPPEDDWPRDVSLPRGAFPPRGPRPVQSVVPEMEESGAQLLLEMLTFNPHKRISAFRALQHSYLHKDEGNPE
CDK4, sequence (P24385 whole entry partner, species assumed): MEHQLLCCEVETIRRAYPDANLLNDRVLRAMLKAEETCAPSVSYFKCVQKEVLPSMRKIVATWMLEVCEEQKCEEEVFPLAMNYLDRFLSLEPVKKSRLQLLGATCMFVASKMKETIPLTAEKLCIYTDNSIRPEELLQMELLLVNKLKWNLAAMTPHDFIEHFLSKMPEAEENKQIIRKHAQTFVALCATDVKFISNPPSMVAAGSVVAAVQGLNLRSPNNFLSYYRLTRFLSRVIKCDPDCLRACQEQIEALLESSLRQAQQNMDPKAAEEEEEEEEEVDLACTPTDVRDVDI

`OCCCNc1cncc(-c2ncnc(Nc3cccc(Cl)c3)n2)c1` [Compound 1, 3-((5-(4-((3-chlorophenyl)amino)-1,3,5-triazin-2-yl)-3-pyridinyl)amino)-1-propanol]: the figures for the half-inhibitory concentration (IC50) on CDK4 and in the experiment on MDA-MB-231 were 1350 nM and 330 nM, respectively.

Broadly, the IC50 is the concentration that gives 50% inhibition. A low value points to greater potency in that assay.
